≈ marks a conversion by molar mass, not a printed value. Where two headings read alike, the source gives them in different places.
How the values were obtained:
[1] = tested on: Streptococcus pyogenes C203; assay: protection of mice experimentally infected with S. pyogenes C203; type: in vivo; settings: mg/kg × 2, doses given 1 and 4 hours postinfection
Procedure: Some of the derivatives of this invention have shown in vivo antimicrobial activity against experimentally-induced infections in laboratory animals. When two doses of test compound were administered to mice experimentally infected with S. pyogenes C203, the activity observed was measured as an ED50 value [effective dose in mg/kg to protect 50% of the test animals: see Warren Wick, et al., J. Bacteriol. 81, 233-235 (1961)].
^a mg/kg × 2; doses given 1 and 4 hours postinfection

[2] = tested on: Streptococcus pyogenes C203; assay: MIC, standard agar-dilution assay, Streptococcus pyogenes C203; type: cell-based
Procedure: (§1) Certain of the derivatives are active against some gram-negative bacteria, such as Pasteurella species. The MIC's in Table II were determined by standard agar-dilution assays.

[3] = tested on: Haemophilus influenzae 76; assay: MIC, standard agar-dilution assay, Haemophilus influenzae 76; type: cell-based
Procedure: as §1

[4] = tested on: Haemophilus influenzae C.L.; assay: MIC, standard agar-dilution assay, Haemophilus influenzae C.L.; type: cell-based
Procedure: as §1

[5] = tested on: Streptococcus pneumoniae Group D X9960; assay: MIC, standard agar-dilution assay, Streptococcus pneumoniae Group D X9960; type: cell-based
Procedure: as §1

[6] = tested on: Streptococcus pneumoniae Group D X66; assay: MIC, standard agar-dilution assay, Streptococcus pneumoniae Group D X66; type: cell-based
Procedure: as §1

[7] = tested on: Staphylococcus epidermidis EPI1; assay: MIC, standard agar-dilution assay, Staphylococcus epidermidis EPI1; type: cell-based
Procedure: as §1

[8] = tested on: Staphylococcus aureus X400; assay: MIC, standard agar-dilution assay, Staphylococcus aureus X400; type: cell-based
Procedure: as §1

[9] = tested on: Staphylococcus epidermidis EPI2; assay: MIC, standard agar-dilution assay, Staphylococcus epidermidis EPI2; type: cell-based
Procedure: as §1

[10] = tested on: Klebsiella pneumoniae X26; assay: MIC, standard agar-dilution assay, Klebsiella pneumoniae X26; type: cell-based
Procedure: as §1

[11] = tested on: Escherichia coli EC14; assay: MIC, standard agar-dilution assay, Escherichia coli EC14; type: cell-based
Procedure: as §1

[12] = tested on: Escherichia coli TEM; assay: MIC, standard agar-dilution assay, Escherichia coli TEM; type: cell-based
Procedure: as §1

[13] = tested on: Staphylococcus aureus S13E; assay: MIC, standard agar-dilution assay, Staphylococcus aureus S13E; type: cell-based
Procedure: as §1

[14] = tested on: Staphylococcus aureus V41; assay: MIC, standard agar-dilution assay, Staphylococcus aureus V41; type: cell-based
Procedure: as §1

[15] = tested on: Staphylococcus aureus X1.1; assay: MIC, standard agar-dilution assay, Staphylococcus aureus X1.1; type: cell-based
Procedure: as §1

[16] = tested on: Klebsiella pneumoniae KAE; assay: MIC, standard agar-dilution assay, Klebsiella pneumoniae KAE; type: cell-based
Procedure: as §1

[17] = Titration pKa
[18] = tested on: Streptococcus pneumoniae Park I; assay: MIC, standard agar-dilution assay, Streptococcus pneumoniae Park I; type: cell-based
Procedure: as §1

[19] = physchem
[20] = Staphylococcus aureus X400, Methicillin-resistant strain, read-out: MIC
[21] = Klebsiella pneumoniae KAE, read-out: MIC
[22] = Streptococcus pneumoniae Park I, read-out: MIC
[23] = Haemophilus influenzae 76, Ampicillin-resistant strain, read-out: MIC
[24] = Haemophilus influenzae C.L., Ampicillin-sensitive strain, read-out: MIC
[25] = Streptococcus pneumoniae Group D X9960, read-out: MIC
[26] = Escherichia coli TEM, read-out: MIC
[27] = Staphylococcus aureus V41, Penicillin-resistant strain, read-out: MIC

| SMILES | ED50 ([1]; C203, Oral) | ED50 ([1]; C203, sc, Subcutaneous) | MIC [2] | MIC ([6]; Streptococcus pneumoniae) | MIC ([7]; read-out: MIC) | MIC [8, 20] | MIC [9] | MIC ([10]; read-out: MIC) | MIC [11] | MIC ([12]; Escherichia coli) | MIC [13] | MIC ([14]; Staphylococcus aureus, V41) | MIC [15] | MIC [16, 21] | MIC ([2]; read-out: MIC) | MIC [18, 22] | MIC [3, 23] | MIC [4, 24] | MIC [5, 25] | MIC ([11]; read-out: MIC) | other results |
| --- | --- | --- | --- | --- | --- | --- | --- | --- | --- | --- | --- | --- | --- | --- | --- | --- | --- | --- | --- | --- | --- |
| CCC1OC(=O)CC(O)C(C)C(OC2OC(C)C(O)C(N(C)C)C2O)C(CCN2CCCCCC2)CC(C)C(=O)C=CC(C)=CC1CO (stereo not shown) [Compound 5] | > 100 mg/kg | 7.8 mg/kg | 0.5 µg/mL (≈ 0.734 µM) | 16 µg/mL (≈ 23.5 µM) | 2 µg/mL (≈ 2.94 µM) | 8 µg/mL (≈ 11.7 µM) | 2 µg/mL (≈ 2.94 µM) | 4 µg/mL (≈ 5.87 µM) | 128 µg/mL (≈ 188 µM) | 16 µg/mL (≈ 23.5 µM) | 4 µg/mL (≈ 5.87 µM) | 4 µg/mL (≈ 5.87 µM) | 4 µg/mL (≈ 5.87 µM) | 128 µg/mL (≈ 188 µM) |  |  |  |  |  |  | MIC ([3]; Haemophilus influenzae, 76): 16 µg/mL (≈ 23.5 µM); MIC ([4]; Haemophilus influenzae): 16 µg/mL (≈ 23.5 µM); MIC ([5]; Streptococcus pneumoniae): 16 µg/mL (≈ 23.5 µM) |
| CCC1OC(=O)CC(O)C(C)C(OC2OC(C)C(O)C(N(C)C)C2O)C(CCN2CCCCCCC2)CC(C)C(=O)C=CC(C)=CC1CN1CCCCCCC1 (stereo not shown) [Compound 15, 20-DH-DO-23-Deoxy-20,23-di(octahydroazocin-1-yl)-OMT] | > 50 mg/kg | > 10 mg/kg |  | 0.5 µg/mL (≈ 0.633 µM) | 0.5 µg/mL (≈ 0.633 µM) |  | 0.25 µg/mL (≈ 0.316 µM) | 2 µg/mL (≈ 2.53 µM) |  |  | 0.5 µg/mL (≈ 0.633 µM) | 0.5 µg/mL (≈ 0.633 µM) |  | 8 µg/mL (≈ 10.1 µM) | 0.125 µg/mL (≈ 0.158 µM) | 0.125 µg/mL (≈ 0.158 µM) | 1 µg/mL (≈ 1.27 µM) | 0.5 µg/mL (≈ 0.633 µM) | 1 µg/mL (≈ 1.27 µM) | 4 µg/mL (≈ 5.06 µM) | pKa ([17]; Titration pKa value (first)): 6.9; pKa ([17]; Titration pKa value (second)): 8.05; pKa ([17]; Titration pKa value (third), third printed value): 8.9; MIC ([8]; Staphylococcus aureus, X400): 0.5 µg/mL (≈ 0.633 µM); MIC [12, 26]: 2 µg/mL (≈ 2.53 µM); MIC ([15]; read-out: MIC): 0.5 µg/mL (≈ 0.633 µM) |
| CCC1OC(=O)CC(O)C(C)C(OC2OC(C)C(O)C(N(C)C)C2O)C(CCN2CCCCCC2)CC(C)C(=O)C=CC(C)=CC1C (stereo not shown) [Compound 23] | > 100 mg/kg | > 10 mg/kg | 0.5 µg/mL (≈ 0.752 µM) |  | 2 µg/mL (≈ 3.01 µM) | 8 µg/mL (≈ 12 µM) | 1 µg/mL (≈ 1.5 µM) | 2 µg/mL (≈ 3.01 µM) | 128 µg/mL (≈ 193 µM) | 8 µg/mL (≈ 12 µM) | 4 µg/mL (≈ 6.02 µM) |  |  | 128 µg/mL (≈ 193 µM) |  |  | 16 µg/mL (≈ 24.1 µM) | 16 µg/mL (≈ 24.1 µM) | 16 µg/mL (≈ 24.1 µM) |  | MIC ([6]; Streptococcus pneumoniae Group D X66, read-out: MIC): 8 µg/mL (≈ 12 µM); MIC [14, 27]: 4 µg/mL (≈ 6.02 µM); MIC ([15]; read-out: MIC): 4 µg/mL (≈ 6.02 µM) |
| CCC1OC(=O)CC(O)C(C)C(OC2OC(C)C(O)C(N(C)C)C2O)C(CCN2CCC(c3ccccc3)CC2)CC(C)C(=O)C=CC(C)=CC1CO (stereo not shown) [Compound 4, 20-DH-DO-20-(4-Phenylpiperidin-1-yl)-OMT] | > 100 mg/kg | > 10 mg/kg | 2 µg/mL (≈ 2.69 µM) | 2 µg/mL (≈ 2.69 µM) | 1 µg/mL (≈ 1.35 µM) |  | 0.5 µg/mL (≈ 0.673 µM) |  |  | 8 µg/mL (≈ 10.8 µM) | 2 µg/mL (≈ 2.69 µM) | 2 µg/mL (≈ 2.69 µM) | 2 µg/mL (≈ 2.69 µM) |  |  | 0.25 µg/mL (≈ 0.336 µM) |  |  | 4 µg/mL (≈ 5.38 µM) | 32 µg/mL (≈ 43.1 µM) | MIC ([3]; Haemophilus influenzae, 76): 8 µg/mL (≈ 10.8 µM); MIC ([4]; Haemophilus influenzae): 8 µg/mL (≈ 10.8 µM); MIC ([8]; Staphylococcus aureus, X400): 2 µg/mL (≈ 2.69 µM); MIC [10]: 2 µg/mL (≈ 2.69 µM); MIC ([16]; Klebsiella pneumoniae): 64 µg/mL (≈ 86.1 µM) |
| CCC1OC(=O)CC(O)C(C)C(OC2OC(C)C(O)C(N(C)C)C2O)C(CCN2CCOCC2)CC(C)C(=O)C=CC(C)=CC1CO (stereo not shown) [Compound 14, 20-DH-DO-20-Morpholino-OMT] | > 100 mg/kg | > 10 mg/kg |  |  | 2 µg/mL (≈ 2.99 µM) | 8 µg/mL (≈ 12 µM) | 1 µg/mL (≈ 1.5 µM) |  | 128 µg/mL (≈ 191 µM) | 64 µg/mL (≈ 95.7 µM) | 4 µg/mL (≈ 5.98 µM) |  |  |  | 1 µg/mL (≈ 1.5 µM) | 0.5 µg/mL (≈ 0.748 µM) | 4 µg/mL (≈ 5.98 µM) | 16 µg/mL (≈ 23.9 µM) | 4 µg/mL (≈ 5.98 µM) |  | pKa ([17]; Titration pKa value (first)): 6.5; pKa ([17]; Titration pKa value (second)): 8.4; MIC [10]: 4 µg/mL (≈ 5.98 µM); MIC [14, 27]: 4 µg/mL (≈ 5.98 µM); MIC ([15]; read-out: MIC): 4 µg/mL (≈ 5.98 µM); MIC ([16]; Klebsiella pneumoniae KAE, symbol for not active at 128 mcg/ml, read-out: MIC): > 128 µg/mL |
| CCC1OC(=O)CC(O)C(C)C(OC2OC(C)C(O)C(N(C)C)C2O)C(CCN2CC3CCC(CC3)C2)CC(C)C(=O)C=CC(C)=CC1CO (stereo not shown) [Compound 13, 20-DH-DO-20-[3-Azabicyclo(3.2.2)-nonan-3-yl]-OMT] | 87 mg/kg | 5.9 mg/kg |  | 4 µg/mL (≈ 5.66 µM) |  | 1 µg/mL (≈ 1.41 µM) | 0.25 µg/mL (≈ 0.354 µM) | 2 µg/mL (≈ 2.83 µM) |  |  | 1 µg/mL (≈ 1.41 µM) | 1 µg/mL (≈ 1.41 µM) | 1 µg/mL (≈ 1.41 µM) |  | 2 µg/mL (≈ 2.83 µM) |  | 2 µg/mL (≈ 2.83 µM) | 4 µg/mL (≈ 5.66 µM) | 8 µg/mL (≈ 11.3 µM) | 32 µg/mL (≈ 45.3 µM) | pKa ([19]; Titration pKa value (first)): 7.7; pKa ([19]; Titration pKa value (second)): 9.3; MIC ([18]; Streptococcus pneumoniae): 0.25 µg/mL (≈ 0.354 µM); MIC [7]: 1 µg/mL (≈ 1.41 µM); MIC [12, 26]: 8 µg/mL (≈ 11.3 µM); MIC ([16]; Klebsiella pneumoniae): 64 µg/mL (≈ 90.5 µM) |

Reference: US4629786A, “C-20- and C-23 modified macrolide derivatives” (Eli Lilly and Company, priority 1984, dated 1986)
